According to US9962465B2, “Amelogenin-chitosan hydrogel for dentin hypersensitivity” (UNIVERSITY OF SOUTHERN CALIFORNIA, priority 2015, dated 2018):

Experiments:
[1] = Nanoindentation test of the newly regenerated layer (modulus, hardness); set-up: species or system Human; conditions: for mechanical properties of the newly formed layer compared with healthy dentin: peptide only treatment; for surface hardness of dentin lesions: peptide only, 5 days
Protocol: Human third molars were sectioned transversally into 2 mm thick slices at the mid-coronal region of the tooth. A window of sound dentin measuring 2×2 mm each was delineated by applying two coats of acid-resistant nail varnish on the tooth surfaces. To mimic carious lesions, the samples were immersed in a demineralizing solution (pH 4.6, 30 ml) at 37° C. for 3 days. Twenty μl of peptide only (LRAP, P32, P26) and peptide-chitosan hydrogel (200 μg/ml) were applied separately on the demineralized windows (2 applications: Days 1 & 5) and the tooth slices were immersed in artificial saliva (pH 7, 5 ml) at 37° C. for 5 and 10 days. The artificial saliva includes 1.2 mM Ca^2+, 0.2 mM Mg^2+ 0.7 mM H2PO4^−, 16 mM KCl, 4.5 mM NH4Cl and 50 mM Hepes in water. The artificial saliva solution (5 ml) was changed daily from days 1-10.
FIGS. 18A, 18B, 18C, and 18D provide nanoindentation test results showing changes in the modulus (A,B) and hardness (C, D) of the newly regenerated layer after being treated with peptide only and peptide-chitosan hydrogel for 5 and 10 days. Treatment with LRAP and P32 restored surface hardness of dentin lesions in 5 days.

[2] = TEM of peptide self-assembly; assay type: physicochemical; conditions: pH 7.4, HEPES buffer, 25° C.
From the text: (Ref: doi:10.1016/j.jsb.2011.07.016).

Row | Sequence | mechanical properties of the newly formed layer compared with healthy dentin [1] | surface hardness of dentin lesions [1] | TEM assembly morphology [2]
1 | MPLPPHPGHPGYINFSYEVLTPLKWYQSIRPPPLPPMLPDLTLEAWPSTDKTKREEVD (listed as Homo sapiens) [LRAP, leucine rich amelogenin polypeptide, alternatively spliced isoform of amelogenin] | superior mechanical properties than healthy dentin | restored | –
2 | MPLPSYEVLTPLKWPVHPMQPSTDKTKREEVD (Amelogenin-derived polypeptide) [Peptide P32, Artificial amelogenin-derived polypeptide] | superior mechanical properties than healthy dentin | restored | uniformly-dispersed spherical assemblies
